# Reference: patent publication US6395684B1, “Selective herbicides based on a substituted phenyl sulfonyl amino carbonyl triazolinone” (Bayer Aktiengesellschaft, priority 1998, dated 2002)
# Structures can show the parent of a compound that is named as a salt.
# Assays:
# Format in all cases: in vivo
# [1] = tested on: Agropyron repens; test: Post emergence tests/outdoors (Example C, Germany and France); conditions: 42 g of a.i./ha to 45 g of a.i./ha, post-emergence (spring), outdoors, winter wheat, 70 WP or 70 WG, 83 tests
# Experimental: (§1) Post Emergence Tests/outdoors Under outdoor conditions, the sodium salt of the compound of the formula (I) was tested in winter wheat in Germany and France against economically important weeds. The small-plot experiments were carried out on cultivated land under agricultural use, with cultivation and climate conditions which can be considered to be representative for the period of the trial. Areas with particularly extensive weed growth were chosen by way of preference. The active compound was applied by the post-emergence method (spring) across the area by the spray method, with an average droplet size. To produce a useful preparation of active compound, the active compound was formulated as 70 WP or 70 WG (70% w/w water-dispersible powder or granules) and applied with customary amounts of water. To assess the crop compatibility, from 1 to 8 weeks after the treatment, plant growth inhibitions or […] of the leaf area were assessed in % damage in comparison to the development of the untreated control. At different intervals after the treatment, the herbicidal activity was assessed as % reduction in comparison to the untreated control, based on the weed development. The figures denote: 0%=no damage of the crops or no herbicidal effect, 100%=total destruction of the crops or the weeds.
# [2] = tested on: Alopecurus myosuroides; test: as above; conditions: 42 g of a.i./ha to 45 g of a.i./ha, post-emergence (spring), outdoors, winter wheat, 70 WP or 70 WG, 204 tests
# Experimental: as §1
# [3] = tested on: Apera spica-venti; test: as above; conditions: 42 g of a.i./ha to 45 g of a.i./ha, post-emergence (spring), outdoors, winter wheat, 70 WP or 70 WG, 87 tests
# Experimental: as §1
# [4] = tested on: Capsella bursa-pastoris; test: as above; conditions: 42 g of a.i./ha to 45 g of a.i./ha, post-emergence (spring), outdoors, winter wheat, 70 WP or 70 WG, 6 tests
# Experimental: as §1
# [5] = tested on: Poa annua; test: as above; conditions: 42 g of a.i./ha to 45 g of a.i./ha, post-emergence (spring), outdoors, winter wheat, 70 WP or 70 WG, 5 tests
# Experimental: as §1
# [6] = tested on: Sinapis arvensis; test: as above; conditions: 42 g of a.i./ha to 45 g of a.i./ha, post-emergence (spring), outdoors, winter wheat, 70 WP or 70 WG, 4 tests
# Experimental: as §1
# [7] = tested on: Bromus secalinus; test: Post-emergence tests/outdoors (Example D, USA); conditions: 42 g a.i./ha to 45 g a.i./ha, post-emergence (autumn), outdoors, winter wheat, with surface-active substances (SAS), 24 tests
# Experimental: (§2) The active compound was applied by the post-emergence method (spring) across the area by the spray method, with an average droplet size. To produce a useful preparation of active compound, the active compound was formulated as 70 WP or 70 WG (70% w/w water-dispersible powder or granules) and applied with customary amounts of water. To assess the crop compatibility, from 1 to 8 weeks after the treatment, plant growth inhibitions or […] of the leaf area were assessed in % damage in comparison to the development of the untreated control. At different intervals after the treatment, the herbicidal activity was assessed as % reduction in comparison to the untreated control, based on the weed development. The figures denote: 0%=no damage of the crops or no herbicidal effect, 100%=total destruction of the crops or the weeds. Post-emergence Tests/outdoors The sodium salt of the compound of the formula (I) was tested under outdoor conditions in the main cultivation areas of winter wheat in the USA (Pacific Northwest, North Central Area, Central Plains) against economically important weeds. The design, the practice and the evaluation of the experiments corresponded to Example C. The active compound was applied in autumn. Wetting of the plants was improved by addition of commercial surface-active substances (SAS) in the concentrations recommended by the respective manufacturer.
# [8] = tested on: Bromus tectorum; test: Post-emergence tests/outdoors (Example D, USA); conditions: 42 g a.i./ha to 45 g a.i./ha, post-emergence (autumn), outdoors, winter wheat, with surface-active substances (SAS), 37 tests
# Experimental: as §2
# [9] = tested on: Erysimum cheiranthoides; test: Post-emergence tests/outdoors (Example D, USA); conditions: 42 g a.i./ha to 45 g a.i./ha, post-emergence (autumn), outdoors, winter wheat, with surface-active substances (SAS), 10 tests
# Experimental: as §2
# [10] = tested on: Thlaspi arvense; test: Post-emergence tests/outdoors (Example D, USA); conditions: 42 g a.i./ha to 45 g a.i./ha, post-emergence (autumn), outdoors, winter wheat, with surface-active substances (SAS), 7 tests
# Experimental: as §2
smiles,measurement,setting,value
"CCCOc1nn(C(=O)NS(=O)(=O)c2ccccc2C(=O)OC)c(=O)n1C [(I)-Na-salt, 2-(2-methoxycarbonyl-phenylsulphonylaminocarbonyl)-4-methyl-5-propoxy-2,4-dihydro-3H-1,2,4-triazol-3-one]",herbicidal effect (%),[1],89%
same,herbicidal effect (%),[2],91%
same,herbicidal effect (%),[3],94%
same,herbicidal effect (%),[4],100%
same,herbicidal effect (%),[5],67%
same,herbicidal effect (%),[6],100%
same,herbicidal effect (%),[7],95%
same,herbicidal effect (%),[8],90%
same,herbicidal effect (%),[9],89%
same,herbicidal effect (%),[10],100%
